Test results from patent US12059413B2, “Methods of inhibiting viruses using compositions targeting TSG101-ubiquitin interaction” (The Research Foundation for the State University of New York, priority 2016, dated 2024).

Tests used:
EGFR = experiment: EGF-stimulated EGFR degradation, Western analysis; type: cell-based; conditions: concentrations well above 50 JAM
Protocol: FIG. 20A-C. N16 inhibition is virus-specific. A) N16 IC50 for Hela and 293T cells. […] Values were calculated by measuring metabolic activity (WST-1 Assay, Roche Applied Science) after cells were grown for 24 hr in N16. Data points represent the mean of 2 assays, 3 time points each for each cell line. […] Values in the absence or presence of N16 (50 uM) were 12% and 13%, respectively). C) N16 effect on EGF-stimulated EFGR degradation. Cells maintained for 24 hr in media containing DMSO alone or DMSO and N16 were stimulated with EGF ligand for a 90 min period and then assessed for EGFR steady-state level by Western analysis. EGFR levels for unstimulated and stimulated sample pairs are shown. A) n=2; B) n=2; C) n=2.
We investigated the specificity of the inhibitory effect. F15 and N16 impaired Tsg101-co-localization with Gag on the plasma membrane (c.f, FIG. 19) and reduced release of the VLPs assembled by Gag (c.f, FIG. 15). […] Cell metabolic activity was not affected after exposure to N16 for 24 hr; it decreased by less than 10% after exposure to N16 for 48 hr (not shown). Tsg101 localization to the midbody of dividing cells requires its recruitment to that location by centrosomal protein of 55k (CEP55) which binds a site in the Tsg101 Pro-rich domain (aa 154-166) (Lee, H. H., et al. (2008)). […]

HIV-1 NL4-3 P7L = experiment: Electron microscopy of budding morphologies, WT- or P7L-NL4-3; type: cell-based; conditions: 50 μM N16
Protocol: FIG. 15A-D. N16 inhibits HIV-1 NL4-3 and Gag VLP production. A) Effect on virus production. Virus particles from N16-treated 293T cells transfected with pNL4-3 as determined by ELISA assay. Top, The compound was added 6 hr prior to DNA transfection and tissue culture media was harvested 24 hr later. Bottom, The compound was added at the indicated concentration 24 hr after DNA transfection and tissue culture media was harvested 24 hr later. Assay values were normalized to that of the DMSO carrier control. B) Effect on virus infectivity. Infectious viral particles per ng p24 as determined by MAGI assay. C) Left, Electron microscopy of particles at cell surface at 24 hr post-N16 addition; Right, Quantitative analysis of budding morphologies. Cells expressing WT- or P7L-NL4-3 were exposed to DMSO carrier or 50 μM N16. Arrows indicate emerging ‘Early’ buds. D) Effects on Gag VLP production. Top, Western blot analysis. Cells treated at the indicated concentration were transfected with DNA encoding Gag-HA. […] Bottom, Quantitative analysis. […]
Electron microscopy was used to identify the event arrested by N16 treatment. […] Treatment of P7L with N16 blocked the residual particle release that the mutation permits (mediated by Alix, an ESCRT adaptor, Fujii, K. et al. (2009)) and shifted the predominant form detected from ‘Tethered’ to ‘Early’.

How did the EGFR down-regulation function (EGFR) turn out when `COc1ccc2[nH]c([S+]([O-])Cc3ncc(C)c(OC)c3C)nc2n1` (centres unmarked) [N16, tenatoprazole] was run?
The EGFR down-regulation function was “unimpaired”.

What about the “residual particle release of P7L” value (HIV-1 NL4-3 P7L) of the same molecule?
The value was “blocked”.
